Measured values: patent US20230382925A1, “MODULATORS OF CYSTIC FIBROSIS TRANSMEMBRANE CONDUCTANCE REGULATOR” (VERTEX PHARMACEUTICALS INCORPORATED, priority 2020, published 2023)
Like-named read-outs stand apart in the source and are kept apart here.

Biological target: CFTR (Homo sapiens, UniProt P13569)
Assay: Membrane Potential Dye, Enteroid Assay B
Assay type: cell-based
In short: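 Activity given as % of a triple-combination reference (1 μM and 3 μM correctors, 300 nM acute potentiator). Enteroids were preincubated 18-24 h with compound; chloride efflux then measured 15 min by methyl oxonol fluorescence after forskolin/IBMX/Compound III stimulation in chloride-free buffer containing CaCCinh-A01 and Chicago Sky Blue.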

[1] = Table 10, read-out: Ent. B EC50

Chain of CFTR (P13569 with tags, fused parts or gaps DEL508-508): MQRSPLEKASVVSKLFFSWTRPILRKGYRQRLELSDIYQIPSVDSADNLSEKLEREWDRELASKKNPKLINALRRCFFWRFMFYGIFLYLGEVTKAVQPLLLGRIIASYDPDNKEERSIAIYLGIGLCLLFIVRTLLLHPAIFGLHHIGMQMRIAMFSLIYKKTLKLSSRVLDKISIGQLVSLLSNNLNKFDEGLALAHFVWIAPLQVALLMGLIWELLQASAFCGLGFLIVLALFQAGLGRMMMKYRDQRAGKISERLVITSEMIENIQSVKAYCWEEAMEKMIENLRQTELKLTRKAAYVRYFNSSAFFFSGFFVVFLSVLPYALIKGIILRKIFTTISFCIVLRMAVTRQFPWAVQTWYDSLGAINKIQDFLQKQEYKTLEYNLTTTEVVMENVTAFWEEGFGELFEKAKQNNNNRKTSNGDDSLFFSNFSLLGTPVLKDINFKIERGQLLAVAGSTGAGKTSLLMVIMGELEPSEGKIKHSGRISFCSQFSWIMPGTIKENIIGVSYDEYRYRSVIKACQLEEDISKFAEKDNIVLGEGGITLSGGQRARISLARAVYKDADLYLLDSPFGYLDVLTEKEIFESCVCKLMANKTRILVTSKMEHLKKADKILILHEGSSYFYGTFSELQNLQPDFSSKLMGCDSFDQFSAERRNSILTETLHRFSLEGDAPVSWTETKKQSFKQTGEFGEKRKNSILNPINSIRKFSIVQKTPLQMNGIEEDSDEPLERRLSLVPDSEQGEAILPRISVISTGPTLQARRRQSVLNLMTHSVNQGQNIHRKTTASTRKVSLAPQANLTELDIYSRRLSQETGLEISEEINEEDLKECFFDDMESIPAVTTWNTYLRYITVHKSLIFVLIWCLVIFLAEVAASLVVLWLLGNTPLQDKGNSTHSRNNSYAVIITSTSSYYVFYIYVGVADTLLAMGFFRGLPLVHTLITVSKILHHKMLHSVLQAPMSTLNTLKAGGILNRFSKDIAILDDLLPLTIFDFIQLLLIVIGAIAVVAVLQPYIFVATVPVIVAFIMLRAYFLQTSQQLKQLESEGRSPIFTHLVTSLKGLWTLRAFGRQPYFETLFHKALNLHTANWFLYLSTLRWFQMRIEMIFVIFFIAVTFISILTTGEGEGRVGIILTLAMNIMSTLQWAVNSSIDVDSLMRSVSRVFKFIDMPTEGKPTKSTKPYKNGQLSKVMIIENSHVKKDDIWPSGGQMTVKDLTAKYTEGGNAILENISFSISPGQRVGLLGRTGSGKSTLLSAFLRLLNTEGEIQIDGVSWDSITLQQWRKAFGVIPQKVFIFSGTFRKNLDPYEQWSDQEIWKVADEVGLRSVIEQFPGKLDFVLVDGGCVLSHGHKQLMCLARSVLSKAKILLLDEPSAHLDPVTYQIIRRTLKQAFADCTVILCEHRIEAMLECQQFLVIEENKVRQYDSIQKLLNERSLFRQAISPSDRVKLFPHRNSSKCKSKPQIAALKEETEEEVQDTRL

## CC(=O)N1CCC2(CC1)CC(N1C(=O)c3cccc(c3)S(=O)(=O)Nc3nc(cc(-c4c(C)cccc4C)n3)OC[C@H]1CC(C)(C)C(F)(F)F)C2 [Compound 420]
Table 9
  Ent. B Max Activity (%): +++ (+++ is >60%)
Table 9, read-out: Ent. B EC50
  EC50: < 1000 nM

## Cc1cccc(C)c1-c1cc2nc(n1)NS(=O)(=O)c1cccc(c1)C(=O)N(C1CC3(CCN(C(=O)OC(C)C)CC3)C1)[C@H](CC(C)(C)C(F)(F)F)CO2 [Compound 421]
Table 9
  Ent. B Max Activity (%): +++ (+++ is >60%)
Table 9, read-out: Ent. B EC50
  EC50: < 1000 nM

## COCCN1CCC2(CC1)CC(N1C(=O)c3cccc(n3)S(=O)(=O)Nc3cc(cc(-c4c(C)cccc4C)n3)OC[C@H]1CC(C)C)C2 [Compound 422]
Table 9
  Ent. B Max Activity (%): +++ (+++ is >60%)

## Cc1ccc(F)c(C)c1-c1cc2nc(n1)NS(=O)(=O)c1cccc(c1)C(=O)N(C1CC3(CC3)C1)[C@H](CC(C)C)CO2 [Compound 424]
Table 9
  Ent. B Max Activity (%): +++ (+++ is >60%)
Table 9, read-out: Ent. B EC50
  EC50: < 1000 nM

## Cc1cccc(C)c1-c1cc2cc(n1)NS(=O)(=O)c1cccc(n1)C(=O)N(C1CC3(CC3)C1)[C@H](CC1(C(F)(F)F)CC1)CO2 [Compound 425]
Table 9
  Ent. B Max Activity (%): +++ (+++ is >60%)
Table 9, read-out: Ent. B EC50
  EC50: < 1000 nM

## Cc1cccc(C)c1-c1cc2nc(n1)NS(=O)(=O)c1cc(n(C)n1)C(=O)N(C1CC3(C1)CC(C(C)(C)O)C3)[C@H](CC(C)(C)C)CO2 (stereo partly drawn) [Compound 436]
Table 10
  Ent. B Max Activity (%): +++ (+++ is >60%)
[1]
  EC50: < 1000 nM

## Cc1cccc(C)c1-c1cc2nc(n1)NS(=O)(=O)c1cccc(c1)C(=O)N(C1CC3(CCN(C(=O)OC(C)(C)C)CC3)C1)[C@H](CC(C)(C)C)CO2 [Compound 437]
  Ent. B Max Activity (%): ++ (++ is 30-60%)
read-out: Ent. B EC50
  EC50: < 1000 nM

## Cc1cccc(C)c1-c1cc2nc(n1)NS(=O)(=O)c1cccc(c1)C(=O)N(C1CCN(C)CC1)CC(CC(C)C)CO2 (stereo not drawn) [Compound 440]
Table 9
  Ent. B Max Activity (%): ++ (++ is 30-60%)
Table 9, read-out: Ent. B EC50
  EC50: 1000 to 3000 nM

## Cc1cccc(C)c1-c1cc2nc(n1)NS(=O)(=O)c1cccc(c1)C(=O)N(C1CCN(C)CC1)CC(CC(C)C)CO2 (stereo not drawn) [Compound 441]
Table 9
  Ent. B Max Activity (%): +++ (+++ is >60%)
Table 9, read-out: Ent. B EC50
  EC50: < 1000 nM

## Cc1cccc(C)c1-c1cc2nc(n1)NS(=O)(=O)c1cccc(c1)C(=O)N(C1CCC3(CC1)CC3)C[C@@H](C)O2 [Compound 442]
  Ent. B Max Activity (%): ++ (++ is 30-60%)
read-out: Ent. B EC50
  EC50: < 1000 nM

## COC(=O)NC1CC2(C1)CC(N1C(=O)c3cccc(c3)S(=O)(=O)Nc3nc(cc(-c4c(C)cccc4C)n3)O[C@@H](C)[C@H]1C)C2 (stereo partly drawn) [Compound 443]
Table 10
  Ent. B Max Activity (%): ++ (++ is 30-60%)
[1]
  EC50: < 1000 nM

## CC(=O)N1CC2(CC(N3C(=O)c4cccc(c4)S(=O)(=O)Nc4nc(cc(-c5c(C)cccc5C)n4)OC[C@H]3CC3(C(F)(F)F)CC3)C2)C1 [Compound 452]
Table 9
  Ent. B Max Activity (%): +++ (+++ is >60%)
Table 9, read-out: Ent. B EC50
  EC50: < 1000 nM

## COC(=O)N1CC2(CC(N3C(=O)c4cccc(c4)S(=O)(=O)Nc4nc(cc(-c5c(C)cccc5C)n4)OC[C@H]3CC3(C(F)(F)F)CC3)C2)C1 [Compound 453]
Table 9
  Ent. B Max Activity (%): +++ (+++ is >60%)
Table 9, read-out: Ent. B EC50
  EC50: < 1000 nM

## CO[C@@H](C)C(=O)N1CCC2(CC1)CC(N1C(=O)c3cccc(c3)S(=O)(=O)Nc3nc(cc(-c4c(C)cccc4C)n3)OC[C@H]1CC(C)C)C2 [Compound 454]
Table 9
  Ent. B Max Activity (%): +++ (+++ is >60%)
Table 9, read-out: Ent. B EC50
  EC50: < 1000 nM

## Cc1cccc(C)c1-c1cc2nc(n1)NS(=O)(=O)c1cccc(c1)C(=O)N(C1CC3(CCN(C(=O)[C@@H](C)O)CC3)C1)[C@H](CC(C)C)CO2 [Compound 455]
Table 9
  Ent. B Max Activity (%): +++ (+++ is >60%)
Table 9, read-out: Ent. B EC50
  EC50: < 1000 nM

## Cc1cccc(C)c1-c1cc2nc(n1)NS(=O)(=O)c1cccc(c1)C(=O)N(C1CC3(CCN(C(=O)[C@H](C)O)CC3)C1)[C@H](CC(C)C)CO2 [Compound 456]
Table 9
  Ent. B Max Activity (%): +++ (+++ is >60%)
Table 9, read-out: Ent. B EC50
  EC50: < 1000 nM

## CO[C@H](C)C(=O)N1CCC2(CC1)CC(N1C(=O)c3cccc(c3)S(=O)(=O)Nc3nc(cc(-c4c(C)cccc4C)n3)OC[C@H]1CC(C)C)C2 [Compound 457]
Table 9
  Ent. B Max Activity (%): +++ (+++ is >60%)
Table 9, read-out: Ent. B EC50
  EC50: < 1000 nM
